# Results: patent US20040087633A1, “Methylidene oxazolidinone compound and preparation method thereof” (Korea Institute of Science and Technology, priority 2002, published 2004)
# Key:
# Assay in all cases: Anti-microbial activity test in vitro (agar dilution MIC)
# CRSA C1062 = format: cell-based, Staphylococcus aureus; settings: CRSA C1062; Agar Dilution method, Mueller Hinton Agar, 18 hours at 37° C.
# Procedure, shortened: (§1)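 Plates of Mueller Hinton agar containing compound diluted twofold in steps were inoculated and incubated at 37 °C for 18 hours. The lowest concentration preventing growth, judged visually, gave the MIC in μg/ml.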
# CRSA C6043 = format: cell-based, Staphylococcus aureus; settings: CRSA C6043; Agar Dilution method, Mueller Hinton Agar, 18 hours at 37° C.
# Procedure, shortened: as §1
# MRSA C2207 = format: cell-based, Staphylococcus aureus; settings: MRSA C2207; Agar Dilution method, Mueller Hinton Agar, 18 hours at 37° C.
# Procedure, shortened: as §1
# MRSA C5100 = format: cell-based, Staphylococcus aureus; settings: MRSA C5100; Agar Dilution method, Mueller Hinton Agar, 18 hours at 37° C.
# Procedure, shortened: as §1
# MRSA C6068 = format: cell-based, Staphylococcus aureus; settings: MRSA C6068; Agar Dilution method, Mueller Hinton Agar, 18 hours at 37° C.
# Procedure, shortened: as §1
# MSSA C2214 = format: cell-based, Staphylococcus aureus; settings: MSSA C2214; Agar Dilution method, Mueller Hinton Agar, 18 hours at 37° C.
# Procedure, shortened: as §1
# MSSA C7142 = format: cell-based, Staphylococcus aureus; settings: MSSA C7142; Agar Dilution method, Mueller Hinton Agar, 18 hours at 37° C.
# Procedure, shortened: as §1
# E. faecalis ATCC29212 = format: cell-based; settings: E. faecalis ATCC29212; Agar Dilution method, Mueller Hinton Agar, 18 hours at 37° C.
# Procedure, shortened: as §1
# E. faecalis C6288 = format: cell-based; settings: E. faecalis C6288; Agar Dilution method, Mueller Hinton Agar, 18 hours at 37° C.
# Procedure, shortened: as §1
# E. faecalis C6291 = format: cell-based; settings: E. faecalis C6291; Agar Dilution method, Mueller Hinton Agar, 18 hours at 37° C.
# Procedure, shortened: as §1
# E. faecium C2252 = format: cell-based; settings: E. faecium C2252; Agar Dilution method, Mueller Hinton Agar, 18 hours at 37° C.
# Procedure, shortened: as §1
# E. faecium C6301 = format: cell-based; settings: E. faecium C6301; Agar Dilution method, Mueller Hinton Agar, 18 hours at 37° C.
# Procedure, shortened: as §1
# S. aureus ATCC 29213 = format: cell-based; settings: Agar Dilution method, Mueller Hinton Agar, 18 hours at 37° C.
# Procedure, shortened: as §1
# S. epidermidis ATCC12228 = format: cell-based; settings: S. epidermidis ATCC12228; Agar Dilution method, Mueller Hinton Agar, 18 hours at 37° C.
# Procedure, shortened: as §1
# S. epidermidis C2230 = format: cell-based; settings: S. epidermidis C2230; Agar Dilution method, Mueller Hinton Agar, 18 hours at 37° C.
# Procedure, shortened: as §1
# S. epidermidis C2235 = format: cell-based; settings: S. epidermidis C2235; Agar Dilution method, Mueller Hinton Agar, 18 hours at 37° C.
# Procedure, shortened: as §1
# S. pyogenes ATCC8668 = format: cell-based; settings: S. pyogenes ATCC8668; Agar Dilution method, Mueller Hinton Agar, 18 hours at 37° C.
# Procedure, shortened: as §1
# S. pyogenes C6003 = format: cell-based; settings: S. pyogenes C6003; Agar Dilution method, Mueller Hinton Agar, 18 hours at 37° C.
# Procedure, shortened: as §1
# S. pyogenes C6012 = format: cell-based; settings: S. pyogenes C6012; Agar Dilution method, Mueller Hinton Agar, 18 hours at 37° C.
# Procedure, shortened: as §1
# VRE C6487 = format: cell-based, Enterococcus faecium; settings: VRE C6487; Agar Dilution method, Mueller Hinton Agar, 18 hours at 37° C.
# Procedure, shortened: as §1
# VRE C6488 = format: cell-based, Enterococcus faecium; settings: VRE C6488; Agar Dilution method, Mueller Hinton Agar, 18 hours at 37° C.
# Procedure, shortened: as §1
Compound,Minimum inhibition concentration (MIC) (CRSA C1062) [µg/mL],Minimum inhibition concentration (MIC) (CRSA C6043) [µg/mL],Minimum inhibition concentration (MIC) (MRSA C2207) [µg/mL],Minimum inhibition concentration (MIC) (MRSA C5100) [µg/mL],Minimum inhibition concentration (MIC) (MRSA C6068) [µg/mL],Minimum inhibition concentration (MIC) (MSSA C2214) [µg/mL],Minimum inhibition concentration (MIC) (MSSA C7142) [µg/mL],Minimum inhibition concentration (MIC) (E. faecalis ATCC29212) [µg/mL],Minimum inhibition concentration (MIC) (E. faecalis C6288) [µg/mL],Minimum inhibition concentration (MIC) (E. faecalis C6291) [µg/mL],Minimum inhibition concentration (MIC) (E. faecium C2252) [µg/mL],Minimum inhibition concentration (MIC) (E. faecium C6301) [µg/mL],Minimum inhibition concentration (MIC) (S. aureus ATCC 29213) [µg/mL],Minimum inhibition concentration (MIC) (S. epidermidis ATCC12228) [µg/mL],Minimum inhibition concentration (MIC) (S. epidermidis C2230) [µg/mL],Minimum inhibition concentration (MIC) (S. epidermidis C2235) [µg/mL],Minimum inhibition concentration (MIC) (S. pyogenes ATCC8668) [µg/mL],Minimum inhibition concentration (MIC) (S. pyogenes C6003) [µg/mL],Minimum inhibition concentration (MIC) (S. pyogenes C6012) [µg/mL],Minimum inhibition concentration (MIC) (VRE C6487) [µg/mL],also measured
"CC(=O)NC[C@H]1CN(c2ccc(N3CCC(=CC(C)OC(=O)CCl)CC3)c(F)c2)C(=O)O1 (stereo partly drawn) [Compound 24, N-[[(5S)-3-[3-fluoro-4-(4-(2-(chloroacetoxy)propylidene)-piperidinyl)-phenyl]-2-oxo-5-oxazolidinyl]methyl]acetamide]",8,16,16,16,8,16,16,8,16,16,16,8,16,2,8,8,2,8,2,4,Minimum inhibition concentration (MIC) (VRE C6488): 4 µg/mL
"CC(=O)NC[C@H]1CN(c2ccc(N3CCC(=Cc4cc(-c5cccs5)no4)CC3)c(F)c2)C(=O)O1 [Compound 9, N-[[(5S)-3-[3-fluoro-4-((4-(3-thiophen-2-yl-5-isoxazolyl)-methylidene)piperidinyl)phenyl]-2-oxo-5-oxazolidinyl]methyl]acetamide]",32,16,32,16,16,16,32,16,16,16,16,16,32,4,8,8,2,16,4,16,Minimum inhibition concentration (MIC) (VRE C6488): 16 µg/mL
"CON=CC=C1CCN(c2ccc(N3C[C@H](CNC(C)=O)OC3=O)cc2F)CC1 [Compound 19, N-[[(5S)-3-[3-fluoro-4-(4-(2-methoxyiminoethylidene)-piperidinyl)phenyl]-2-oxo-5-oxazolidinyl]methyl]acetamide]",4,4,4,4,4,8,4,4,2,4,4,4,8,1,4,2,1,2,1,4,Minimum inhibition concentration (MIC) (VRE C6488): 4 µg/mL
N-[[(5S)-3-[3-fluoro-4-(4-dicyanomethylidenepiperidinyl) phenyl]-2-oxo-5-oxazolidinyl]methyl]acetamide [Compound 6],4,4,4,4,2,4,4,4,4,4,4,2,2,1,2,2,1,4,1,4,Minimum inhibition concentration (MIC) (VRE C6488): 2 µg/mL
